A short description of series [1]: Metabolic stability in human liver microsomes. The class given is in vitro ADME. Conditions: pH 7.4, read-out: Metabolic Stability HLM t1/2. As for the experimental part:
Assays employed human liver microsomes (HLMs, 20 mg/mL) from Xenotech. A 10 mM NADPH stock was prepared in deionized H2O, and test compounds were dissolved in 100% MeOH to a final concentration of 10 mM. The stock solutions were diluted to 500 μM in 100 mM potassium phosphate buffer (pH 7.4), keeping the final MeOH concentration below 0.2%. Reaction mixtures were prepared by combining 928 μL phosphate buffer, 55 μL liver microsomes, and the test compound solution to a final concentration of 3 μM. Verapamil was used as a positive control. The reactions were initiated with the addition of 110 μL of 10 mM NADPH. Aliquots were taken in duplicate at 0, 5, 10, 15, and 30 min, quenched with 100 μL of cold MeOH containing 2 μM internal standard (d 5-7-ethoxy coumarin), and centrifuged at 12,000 RCF for 5 min. The supernatants were then transferred to LC-MS vials for analysis. The average of each duplicate was normalized to the 0 min time point, representing 100% remaining (0% metabolism).
On the technique in general: Liver microsomes are vesicles of endoplasmic reticulum, rich in cytochrome P450 enzymes.

In series [2] the test system is Caco-2 cell total membrane. The series can be described thus: Drug in Caco-2 total membrane fraction versus CM fraction. The class given is in vitro ADME, human. From the text:
Having completed this initial prodrug screening, we next sought to evaluate their ability to incorporate into CMs in vitro. For a lysoglycerolipid prodrug (e.g., TXL and BCV) to be packaged into CMs, it must first be transported into intestinal enterocytes, like Caco-2 cells, by intercalating into the outer leaflet of the plasma membrane before flipping (either actively or passively) to the inner leaflet. Subsequent membrane desorption facilitates intraenterocyte diffusion to the ER and Golgi, where CM are produced. Accordingly, we hypothesized that, even though high lipophilicity should drive prodrug association with CMs, these low hydrophilicity compounds first need to get through the plasma membrane, which could create a kinetic barrier to CM incorporation. […] Proceeding with the CM production and isolation assay as described (Scheme ), cells were harvested in parallel, and the total membrane fraction was separated from other cellular components via centrifugation through a specialized filter provided with the Minute Plasma Membrane Protein Isolation and Cell Fractionation Kit from Invent Biotechnologies (cat No. SM-005). […]
Total membrane fractionation was performed using a Minute Plasma Membrane Protein Isolation and Cell Fractionation Kit from Invent Biotechnologies (cat No. SM-005). […] The clear supernatant was collected and analyzed using LC-MS/MS.

Series [3] can be described thus: Cytotoxicity, MTT assay. To be noted: human, TZM-bl cells.
Description: (§1) To measure cytotoxicity, HeLa-derived TZM-bl cells , were treated with serial dilutions of each drug, and viability was assessed after 48 h. Two methods were used: an ATP luminescence assay, which measures cellular ATP levels as an indicator of metabolic activity (compounds 8a–d), and an MTT assay, which evaluates cell viability via mitochondrial enzymatic activity (compounds 15b, 21a, and 21b).
(§2) The TZM-bl cell line (BEI Resources, ARP-8129) was used to evaluate both cell viability and HIV pseudovirus infectivity reduction. Cytotoxicity in this cell line was measured via two methods. The first method, an ATP luminescence assay, was used for compounds 15a, 15b, 21a, and 21b as such: 6000 TZM-bl cells per well were seeded in a 96-well plate and incubated at 37 °C with 5% CO2 for 24 h. Compounds were prepared as serial dilutions (final concentrations of 1, 0.2, 0.04, 0.008, and 0.0016 μM) in complete DMEM with DEAE-Dextran at 40 μg/mL to mimic HIV infectivity conditions. Solutions were added to the cells and incubated for another 48 h. Viability was assessed using the Promega Cell Titer Glow (CTG) Assay (cat No. G9242) by adding a 50% PBS-CTG solution to each well and measuring luminescence, which correlates with ATP levels, on an Agilent BioTek Synergy HT reader. Cytotoxicity of compounds 8a–d was determined using a colorimetric assay based the conversion of MTT (3-(4,5-dimethylthiazol-2-yl)-2,5-diphenyltetrazolium bromide) to formazan as described previously. TZM-bl cells were plated into 96-well tissue culture plates 1 day prior to performing the MTT assay. A series of 10 3-fold dilutions of each compound was performed from a starting concentration of 10 mM and each dilution was tested for a reduction in cell viability according to the manufacturer’s instructions (CyQuant MTT Cell Viability Assay, ThermoFisher, V13154). Wells containing TZM-bl cells with media only were used as a control. Briefly, serial dilutions of each test compound were added to the plated TZM-bl cells. At 48 h, the media was removed and replaced with 100 mL of fresh culture medium. 10 mL of 12 mM MTT solution was added to each well and incubated at 37 °C for 4 h. 85 mL of supernatant was then removed from each well and replaced with 50 mL of DMSO. Following a 10 min incubation at 37 °C, the absorbance of each well was determined at 540 nm using a Biotek Synergy Neo2 multimode reader and Gen5 v3.02 software.
Series [4] in a line: Metabolic stability in mouse liver microsomes. Format: in vitro ADME. Conditions: pH 7.4, read-out: Metabolic Stability MLM t1/2.
A short description of series [5]: Cytotoxicity, ATP luminescence (Cell Titer Glow) assay. Conditions: human, TZM-bl cells. (ATP-based viability assays read luminescence as a measure of living cells.)
Description: as §1, §2
Series [6] in a line: Mouse oral PK and tissue distribution, fed state. Format: in vivo. Conditions: single oral dose 10 mg/kg, fed mice. From the text: Given the increased packaging of the CF3-modified lipids into CMs compared to their ω-unmodified congeners, we selected these compounds for PK studies in mice. We hypothesized that, following oral administration, our modified prodrugs would favor CM-mediated transport into the lymphatics over absorption into mesenteric veins feeding into the portal system. By circumventing direct transport to the liver, these prodrugs are expected to achieve elevated levels in the lung relative to the liver, as lymph empties into the jugular venous angle and mixes with blood en route to the pulmonary arteries (Figure ). For all mouse PK experiments, prodrugs were formulated in a 9:1 mixture of olive oil and ethanol, then administered to male C57BL/6 mice via oral gavage at a dose of 10 mg/kg. Organs (liver, lung, and plasma) were harvested at 1, 2, 4, 8, and 18 h postdose, per the protocol described by our groups previously. Concentrations of prodrug were quantified using LC-MS/MS after tissue homogenization, extraction, and sample preparation.
The compounds TXL, 15a, 15b, 21a, 21b, and a vehicle control were prepared at a concentration of 1 mg/mL in a 90:10 solution of olive oil (Sigma-Aldrich, cat. No. O1514) and 190-proof ethanol. The dosing for each mouse was calculated based on individual body weights to achieve a final dose of 10 mg/kg. For example, a 20 g mouse would receive 200 μL of the 1 mg/mL drug formulation, while a 25 g mouse would receive 250 μL.
In accordance with the American Chemical Society Guidelines to Publication of Chemical Research, we affirm the use of standard ethical practices when housing and handling research animals, as ensured by the Emory University’s Institutional Animal Care and Use Committee (IACUC) and the Division of Animal Resources (DAR) through a rigorous protocol review, amendment, and approval process. A total of 220 C57BL6/J male mice (aged 11–12 weeks, weight, 22–30 g) were used for these studies. Each mouse was weighed, recorded, and ear-clipped for identification. The dosing for each mouse was calculated based on individual body weights to achieve a final dose of 10 mg/kg. Animals were anesthetized using isoflurane gas before receiving a single dose of drug prepared as described above using a 22-gauge gavage needle attached to a calibrated syringe.
Time points for tissue collection were 1, 2, 4, 8, and 18 h for unfasted mice, and 1, 2, 4, 8, and 24 h for fasted mice. At each time point, the mice (n = 4 per compound per time point) were anesthetized using isoflurane and subjected to cardiac puncture for blood collection into EDTA-coated tubes. The collected blood samples were immediately placed on ice before the mice were humanely euthanized via cervical dislocation. Brain, liver, lungs, and kidneys were harvested, rinsed in PBS, and placed in prelabeled tubes. Tissues were flash-frozen in liquid nitrogen then transferred to dry ice for storage.
Blood samples were collected into EDTA-coated tubes and centrifuged at 400 RCF for 10 min at 4 °C to separate plasma from the cellular components. The plasma layer was carefully pipetted off and stored in separate prelabeled and preweighed tubes. All tissues were stored at −80 °C until time for processing.
Tissues were weighed (∼50 mg) into homogenization tubes and ACN containing a 10 μM ITSD was added to achieve a final solvent-to-tissue ratio of 4:1. Homogenization beads were added, and the tissues were processed (Biotage Lysera, part no. 19–060) using two 20 s pulses with a 10 s interval period. Homogenate was centrifuged at maximum speed for 1 h, supernatant collected and analyzed via LC-MS using the method described previously. For plasma samples, a 50 μL aliquot was added 200 μL of ACN containing ITSD. The mixture was vortexed thoroughly and then centrifuged to precipitate proteins, with the supernatant collected and analyzed via LC-MS. […]

On the set-up of series [7]: method as in Hostetler 2007. To be noted: single oral dose, prodrug in lung and liver over 72 h; ref Hostetler 2007; cited from earlier work.
For series [8] the following is noted: ref Hostetler 2007; cited from earlier work.
For series [9] the following is noted: parent Cidofovir; ref Hostetler 2007; cited from earlier work.

The structures appear in SMILES notation. Read-outs that look alike come from different tables or passages of the source. Bounds are passed on as bounds.

What is called CC50 is the concentration at which the toxic effect on the cells reaches its halfway point. In the case of `CCCCCCCCCCCCCCCCCCOC[C@H](COP(=O)(O)CO[C@H](C)Cn1cnc2c(N)ncnc21)OCc1ccccc1` [8d, Ammonium[(1R)-2-(6-aminopurin-9-yl)-1-methyl-ethoxy]methyl-[(2R)-2-benzyloxy-3-octadecoxy-propoxy]phosphinate], the half-life at 3 µM in series [1] is > 120 min. In series [2] (8 h, n = 3), the “membrane concentration compared with TXL” value is reported as “significantly greater concentrations in the membrane than TXL”. The “drug in membrane fraction” value in [2] (20 h) was “undetectable”. The CC50 at 48 h in series [3] was > 10 µM.

What is called Tmax is the time from dosing to the highest level. As usually defined, the Cmax is the maximum level reached in the sampled fluid or tissue. As to `C[C@H](Cn1cnc2c(N)ncnc21)OCP(=O)(O)OCCCOCCCCCCCCCCCCCCCCCC(F)(F)F` [15b, Ammonium[(1R)-2-(6-aminopurin-9-yl)-1-methyl-ethoxy]methyl-[3-(18,18,18-trifluorooctadecoxy)propoxy]phosphinate], in series [1], the half-life at 3 µM was > 120 min. In addition, the half-life at 3 µM in [4] is 91 min. Moreover, the CC50 at 48 h in series [5] was > 1000 nM. In addition, the Tmax in [6] (male, C57BL/6, mouse, liver, read-out: Liver Tmax) was 4 h. Besides, the Tmax in series [6] (male, C57BL/6, mouse, lung, read-out: Lung Tmax) is 8 h. The compound also came in with a Cmax in [6] (male, C57BL/6, mouse, plasma) of 102 ng/mL. Also, the AUC(0-t) in [6] (male, C57BL/6, mouse, plasma, read-out: Plasma AUC0-18h) was determined as 1010 ng·h/mL. The Tmax in series [6] (male, C57BL/6, mouse, plasma, read-out: Plasma Tmax) came to 4 h. Besides, in [6], the “Liver AUC0-18h” value was 133,000 h*ng/g, the “Liver Cmax” value is listed as 13,400 ng/g, the “Lung AUC0-18h” value is on record as 7,120 h*ng/g and the “Lung Cmax” value was determined as 585 ng/g.

For `CCCCCCCCCCCCCCCCOCCCOP(=O)(O)CO[C@H](CO)Cn1ccc(N)nc1=O` [BCV, brincidofovir], the “lung/liver AUC0–72h” value in series [7] is recorded as 0.04.

Regarding `CCCCCCCCCCCCCCCCCCOCC(COP(=O)(O)COC(CO)Cn1ccc(N)nc1=O)OCc1ccccc1` (centres unmarked) [ODBG-CDV, 1-O-octadecyl-2-O-benzyl-sn-glycero-3-cidofovir], in [7], the “lung/liver AUC0–72h” value is recorded as 2.05. In addition, the “increase in lung delivery compared to liver” value in series [8] was 13-fold increase in lung delivery compared to liver. Besides, the “Δ Oral Availability (% versus Parent)” value in [9] was 32%.

Source of the values: publication PMC12441861, “Next-Generation Lipid Prodrugs Orally Deliver Tenofovir via Enhanced Chylomicron Incorporation” (ACS Pharmacology & Translational Science, 2025).
